c1ccc(-c2nnn[nH]2)cc1
solubility (mole fraction)
Settings	in cyclohexane	in ethanol	in ethyl acetate	in isopropanol	in methanol	in n-propanol	in toluene
283.15 K	–	0.0148	0.00628	0.0141	0.0156	0.0136	2.5e-05
285.65 K	–	0.0156	0.00648	0.0147	0.0164	0.0142	2.85e-05
288.15 K	–	0.0164	0.00665	0.0155	0.0172	0.0148	3.35e-05
290.65 K	–	0.0172	0.00691	0.0163	0.018	0.0154	3.84e-05
293.15 K	–	0.0181	0.00717	0.0171	0.0189	0.016	4.45e-05
295.65 K	–	0.019	0.00746	0.0179	0.0199	0.0167	5.09e-05
298.15 K	–	0.02	0.00773	0.0189	0.0209	0.0174	5.84e-05
300.65 K	–	0.0209	0.00804	0.0198	0.0219	0.0181	6.64e-05
303.15 K	–	0.022	0.00838	0.0208	0.023	0.0188	7.62e-05
305.65 K	7.5e-06	0.023	0.00878	0.0217	0.024	0.0196	8.68e-05
308.15 K	8.16e-06	0.0241	0.00918	0.0227	0.0252	0.0204	9.91e-05
310.65 K	8.97e-06	0.0253	0.00961	0.0237	0.0264	0.0213	0.000113
313.15 K	9.6e-06	0.0264	0.0101	0.0248	0.0276	0.0221	0.000129
315.65 K	1.04e-05	0.0277	0.0106	0.0257	0.0289	0.023	0.000146
318.15 K	1.11e-05	0.0289	0.0111	0.0268	0.0302	0.0239	0.000165
